Our source for the dTm values is doi:10.1101/2020.08.05.237982v3, “ThermoBRET: a ligand-engagement nanoscale thermostability assay applied to GPCRs” (biorxiv, 2023).

The assay has as its target T1, CB2 (Nluc-CB2, tsNluc-CB2) (Homo sapiens, UniProt P34972).
T1 construct: gene CNR2; N-terminal cleaved signal peptide, TwinStrep tag and Nluc or tsNluc
Type of assay: binding. The following applies: Nluc-CB2, 20 µM ligand, DDM/CHAPSO/CHS.

T1 sequence (P34972 whole entry): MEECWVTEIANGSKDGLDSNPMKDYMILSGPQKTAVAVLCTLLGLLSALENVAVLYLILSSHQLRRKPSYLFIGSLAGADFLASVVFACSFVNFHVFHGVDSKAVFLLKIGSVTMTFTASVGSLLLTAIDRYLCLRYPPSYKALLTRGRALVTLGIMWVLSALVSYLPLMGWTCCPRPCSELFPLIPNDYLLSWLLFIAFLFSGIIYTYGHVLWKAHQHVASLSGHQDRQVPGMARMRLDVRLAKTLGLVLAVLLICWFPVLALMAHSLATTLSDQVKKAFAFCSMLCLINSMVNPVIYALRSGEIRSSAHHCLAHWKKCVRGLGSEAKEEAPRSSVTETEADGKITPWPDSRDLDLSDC

In the case of `CCCCCCC(C)(C)c1cc(OC)c([C@@H]2C=C(CO)[C@@H]3C[C@H]2C3(C)C)c(OC)c1` [HU308], the dTm result was “HU308 and SR144528 also produced appreciable increases in thermostability”.

`Cc1ccc(Cn2nc(C(=O)N[C@@H]3C(C)(C)[C@@H]4CC[C@@]3(C)C4)cc2-c2ccc(Cl)c(C)c2)cc1` [SR144528]: the dTm result was “HU308 and SR144528 also produced appreciable increases in thermostability”.
